# Data published in EP4585599A1, “NITROGEN-CONTAINING FUSED RING COMPOUND, INTERMEDIATE THEREOF, PREPARATION METHOD THEREFOR AND USE THEREOF” (Hangzhou Synrx Therapeutics Biomedical Technology Co., Ltd., priority 2022, dated 2024).
# Where a name gives a salt, the structure may show the parent alone. Read-outs that look alike come from different tables or passages of the source.
# What was measured:
# [1] = target: T1, helicase domain of the Pol θ protein (Homo sapiens, UniProt O75417); assay: Biochemical Activity Assay (ADP Glo Assay) of Pol θ inhibitor, ATPase activity
# T1 construct: The helicase domain of the Pol θ protein was purified from insect protein expression system; made in house; host or cells: insect protein expression system
# cells = details: Homo sapiens, DLD-1, 240 h
# [2] = ADP-Glo assay, ATPase activity of Pol θ helicase domain, ssDNA substrate, read-out: Biochemical assay IC50
# [3] = ADP-Glo, ssDNA substrate, 60 min at room temperature, read-out: Biochemical assay IC50
# [4] = read-out: Cell viability assay IC50 (nM), CTG assay, CellTiter Glo, read on Day 10, cell line not given
# [5] = read-out: Cell viability assay IC50 (nM), CTG on Day 10, cell line not given (method: DLD1 and DLD1^-/- cells)
# [6] = read-out: Cell viability assay IC50 (nM)
# T1 sequence (O75417 102-554 limits assumed): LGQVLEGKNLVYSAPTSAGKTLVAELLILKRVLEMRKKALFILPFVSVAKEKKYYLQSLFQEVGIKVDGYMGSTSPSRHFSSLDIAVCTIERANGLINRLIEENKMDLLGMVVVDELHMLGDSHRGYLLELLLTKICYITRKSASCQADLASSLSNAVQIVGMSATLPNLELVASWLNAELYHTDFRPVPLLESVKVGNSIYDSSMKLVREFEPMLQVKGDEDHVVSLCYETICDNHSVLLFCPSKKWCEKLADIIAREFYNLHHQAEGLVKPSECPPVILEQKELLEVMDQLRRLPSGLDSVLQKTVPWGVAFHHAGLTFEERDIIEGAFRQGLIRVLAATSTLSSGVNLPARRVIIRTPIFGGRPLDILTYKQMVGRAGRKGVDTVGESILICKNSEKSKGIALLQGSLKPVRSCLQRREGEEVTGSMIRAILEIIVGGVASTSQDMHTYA
SMILES,"IC50 [1, 2]","IC50 [1, 3]",IC50 (cells; [4]),IC50 (cells; [5]),IC50 ([1]; read-out: Biochemical assay IC50),IC50 (cells; [6]),IC50 ([1]; Biochemical assay IC50 (nM))
COc1cnc(Cl)cc1-c1cc(C)ncc1C(=O)Nc1nc2ncc(N3CCC(O)C(C)C3)cc2s1 (stereo not drawn) [Example 67],6.18 nM,< 50 nM,46.4 nM,< 100 nM,–,–,–
COc1cnc(Cl)cc1-c1cc(C)ncc1C(=O)Nc1nc2cnc(-c3c(C)nnn3C3CC3)cc2s1 [Example 214],–,–,–,–,6.71 nM,27 nM,–
COc1cnc(Cl)cc1-c1cc(C)ncc1C(=O)Nc1nc2ncc(N3CCC(N)CC3)cc2s1 [Example 58],11 nM,< 50 nM,3420 nM,> 1000 nM,–,–,–
COc1cnc(Cl)cc1-c1cc(C)ncc1C(=O)Nc1nc2ncc(N3CCC(OC)CC3)cc2s1 [Example 66],4.98 nM,< 50 nM,192 nM,100 to 500 nM,–,–,–
COc1cnc(Cl)cc1-c1cncnc1C(=O)Nc1nc2ccc(C3=CCC(O)CC3)nc2s1 (stereo not drawn) [Example 6],193 nM,50 to 200 nM,794 nM,500 to 1000 nM,–,–,–
"COc1cnc(Cl)cc1-c1cc(C)ncc1C(=O)Nc1nc2cc3c(cc2s1)N(c1ccnn1C)CCO3 [Example 194, 2'-chloro-5'-methoxy-6-methyl-N-(8-(1-methyl-1H-parazol-5-yl)-7,8-dihydro-6H-thiazolo[5',4':4,5]benzo[1,2-b][1,4]oxazin-2-yl)-[4,4'-bipyridine]-3-carboxamide]",–,–,–,–,–,65.6 nM,22.9 nM
COc1cnc(Cl)cc1-c1cc(C)ncc1C(=O)Nc1nc2ncc(C3=CCC4(CC3)CC(O)C4)cc2s1 (stereo not drawn) [Example 77],3.94 nM,< 50 nM,7.36 nM,< 100 nM,–,–,–
"COc1cnc(Cl)cc1-c1cc(C)ncc1C(=O)Nc1nc2cnc(-c3c(C)cnn3CCN(C)C)cc2s1 [Example 219, 2'-chloro-N-(6-(1-(2-(dimethylamino)ethyl)-4-methyl-1H-parazol-5-yl)thiazolo[4,5-c]pyridin-2-yl)-5'-methoxy-6-methyl-[4.4'-bipyridine]-3-carboxamide trifluoroacetate]",–,–,–,–,–,63.1 nM,3.31 nM
"[2H]C([2H])([2H])c1cc(-c2cc(Cl)ncc2OC)c(C(=O)Nc2nc3cnc(C4=CCC(O)CC4)cc3s2)cn1 (stereo not drawn) [Example 110, 2'-chloro-N-(6-(4-hydroxycyclohex-1-en-1-yl)thiazolo[4,5-c]pyridin-2-yl)-5'-methoxy-6-(methyl-d3)-[4,4'-bipyridine]-3-carboxamide]",2.61 nM,< 50 nM,2.41 nM,< 100 nM,–,–,–
COc1cnc(Cl)cc1-c1cc(C)ncc1C(=O)Nc1nc2c(F)cc(N3CCC(O)CC3)cc2s1 [Example 103],2.67 nM,< 50 nM,22.4 nM,< 100 nM,–,–,–
COc1cnc(Cl)cc1-c1cc(C)ncc1C(=O)Nc1nc2ncc(N3CC4CC(O)CC4C3)cc2s1 (stereo not drawn) [Example 61],10.5 nM,< 50 nM,141 nM,100 to 500 nM,–,–,–
COc1cnc(Cl)cc1-c1cc(C)ncc1C(=O)Nc1nc2ccc(C3=CCC(O)CC3)c(F)c2s1 (stereo not drawn) [Example 20],2.95 nM,< 50 nM,7.64 nM,< 100 nM,–,–,–
COc1cnc(Cl)cc1-c1cc(C)ncc1C(=O)Nc1nc2cnc(N3CCC(O)CC3)cc2s1 [Example 51],9.5 nM,< 50 nM,85.8 nM,< 100 nM,–,–,–

# More lines, main results first:
"IC50 [1, 2]","IC50 [1, 3]",SMILES,IC50 (cells; [4]),IC50 (cells; [5]),IC50 ([1]; read-out: Biochemical assay IC50),IC50 (cells; [6]),IC50 ([1]; Biochemical assay IC50 (nM))
25.1 nM,–,COc1cnc(Cl)cc1-c1cc(C)ncc1C(=O)Nc1nc2ccc(N3CCn4cncc4C3)nc2s1 [Example 137],171 nM,–,–,–,–
8.84 nM,–,COc1cnc(Cl)cc1-c1cc(C)ncc1C(=O)Nc1nc2cnc(-c3c(C#N)cnn3C)cc2s1 [Example 169],89.1 nM,–,–,–,–
3.41 nM,–,COc1cnc(Cl)cc1-c1cc(C)ncc1C(=O)Nc1nc2cnc(-c3[nH]ncc3C)cc2s1 [Example 161],121 nM,–,–,–,–
103 nM,–,"COc1cnc(Cl)cc1-c1cc(C)ncc1C(=O)Nc1nc2c(s1)CN(Cc1ccncc1)CC2 [Example 192, 2'-chloro-5'-methoxy-6-methyl-N-(5-(pyridin-4-ylmethyl)-4,5,6,7-tetrahydrothiazolo[5,4-c]pyridin-2-yl)-[4,4'-bipyridine]-3-carboxamide]",4820 nM,–,–,–,–
9.69 nM,–,COc1cnc(Cl)cc1-c1cc(C)ncc1C(=O)Nc1nc2ccc(N3CCC(CO)CC3)nc2s1 [Example 128],39.8 nM,–,–,–,–
5.93 nM,–,COc1cnc(Cl)cc1-c1cc(C)ncc1C(=O)Nc1nc2c(C#N)cc(N3CCC(O)CC3)cc2s1 [Example 120],14.2 nM,–,–,–,–
5.24 nM,–,"COc1cnc(C(F)F)cc1-c1cc(C)ncc1C(=O)Nc1nc2cnc(N3CCCCC3=O)nc2s1 [Example 201, 2'-(difluoromethyl)-5'-methoxy-6-methyl-N-(5-(2-oxopiperidin-1-yl)thiazolo[5,4-d]pyrimidin-2-yl)-[4,4'-bipyridine]-3-carboxamide]",224 nM,–,–,–,–
2.08 nM,–,"COc1cnc(Cl)cc1-c1cc(C)ncc1C(=O)Nc1nc2ncc(C3COCCO3)cc2s1 (stereo not drawn) [Example 182, N-(6-(1,4-dioxan-2-yl)thiazolo[4,5-b]pyridin-2-yl)-2'-chloro-5'-methoxy-6-methyl-[4,4'-bipyridine]-3-carboxamide]",39.8 nM,–,–,–,–
5.24 nM,–,"COc1cnc(Cl)cc1-c1cc(C)ncc1C(=O)Nc1nc2cnc(-c3ncco3)cc2s1 [Example 205, 2'-chloro-5'-methoxy-6-methyl-N-(6-(oxazol-2-yl)thiazolo[4,5-c]pyridin-2-yl)-[4,4'-bipyridine]-3-carboxamide]",20 nM,–,–,–,–
163 nM,–,COc1cnc(Cl)cc1-c1c(C(=O)Nc2nc3ccc(N4CCC(O)CC4)nc3s2)cnc(C)c1F [Example 124],584 nM,–,–,–,–
7.82 nM,–,COc1cnc(C(F)F)cc1-c1cc(C)ncc1C(=O)Nc1nc2cnc(N3CC4(CC(O)C4)C3)nc2s1 [Example 199],31.6 nM,–,–,–,–
145 nM,–,COc1cnc(Cl)cc1-c1cc(C(F)(F)F)ncc1C(=O)Nc1nc2ccc(N3CCC(O)CC3)nc2s1 [Example 122],2710 nM,–,–,–,–
3.63 nM,–,"COc1cnc(C(F)F)cc1-c1cc(C)ncc1C(=O)Nc1nc2cnc(-c3c(C)nnn3C3CC3)cc2s1 [Example 213, N-(6-(1-cyclopropyl-4-methyl-1H-1,2,3-triazol-5-yl)thiazolo[4,5-c]pyridin-2-yl)-2'-(difluoromethyl)-5'-methoxy-6-methyl-[4,4'-bipyridine]-3-carboxamide]",4.13 nM,–,–,–,–
3.74 nM,–,COc1cnc(Cl)cc1-c1cc(C)ncc1C(=O)Nc1nc2cnc(-c3c(Cl)cnn3C)cc2s1 [Example 167],5.41 nM,–,–,–,–
8.23 nM,–,COc1cnc(Cl)cc1-c1cc(C)ncc1C(=O)Nc1nc2cnc(N3CC[C@@H](O)C[C@H]3C)nc2s1 [Example 141],21.5 nM,–,–,–,–
20.7 nM,–,"COc1cnc(Cl)cc1-c1cc(C)ncc1C(=O)Nc1nc2cc(F)c(-c3c(C)nnn3C)nc2s1 [Example 227, 2'-chloro-N-(5-(1,4-dimethyl-1H-1,2,3-triazol-5-yl)-6-fluorothiazolo[5,4-b]pyridin-2-yl) -5'-methoxy-6-methyl-[4,4'-bipyridine]-3-carboxamide]",112 nM,–,–,–,–
